Source: PMC7595202, “Indole hydrazide compound ZJQ-24 inhibits angiogenesis and induces apoptosis cell death through abrogation of AKT/mTOR pathway in hepatocellular carcinoma” (Cell Death & Disease, 2020)

Target: mTOR (Homo sapiens, UniProt P42345)
Experiment: in vitro kinase activity assay at ATP near Km; also anti-Raptor immunoprecipitated mTORC1 kinase assay (HepG2/HUH-7) with GST-S6K1 substrate
Type: biochemical

## COc1ccc(C=NNC(=O)c2cc3cc(Cl)ccc3[nH]2)c(OC)c1 [ZJQ-24, 5-chloro-N’-(2,4-dimethoxybenzylidene)−1H-indole-2-carbohydrazide]
  EC50: 40.6 µM
